Here are results for 23 compounds from patent US10206909B2, “3-(1H-pyrrolo[2,3-B]pyridin-2-yl)-1H-pyrazolo[4,3-B]pyridines and therapeutic uses thereof” (Samumed, LLC, priority 2015, dated 2019).

The experiment has as its system Wnt activity (Sp5-Luc reporter, SW480 colon carcinoma cells). The experiment can be described thus: Wnt activity screening assay: Sp5-Luc reporter gene assay in SW480 cells. The experiment is classed as cell-based. Particulars: Homo sapiens; for EC50: SW480 cells, overnight incubation; for inhibition at 10 µM: given where EC50 >10 μM, SW480, read-out: percent inhibition at 10 μM. From the text: The screening assay for Wnt activity is described as follows. Reporter cell lines can be generated by stably transducing cancer cell lines (e.g., colon cancer) or primary cells (e.g., IEC-6 intestinal cells) with a lentiviral construct that includes a Wnt-responsive promoter driving expression of the firefly luciferase gene.
SW480 colon carcinoma cells were transduced with a lentiviral vector expressing luciferase with a human Sp5 promoter consisting of a sequence of eight TCF/LEF binding sites. SW480 cells stably expressing the Sp5-Luc reporter gene and a hygromycin resistance gene were selected by treatment with 150 μg/mL of hygromycin for 7 days. These stably transduced SW480 cells were expanded in cell culture and used for all further screening activities. Each compound was dissolved in DMSO as a 10 mM stock and used to prepare compound source plates. Serial dilution (1:3, 10-point dose-response curves starting from 10 μM) and compound transfer was performed using the ECHO 550 (Labcyte, Sunnyvale, Calif.) into 384-well white solid bottom assay plates (Greiner Bio-One) with appropriate DMSO backfill for a final DMSO concentration of 0.1%. For Sp5-Luc reporter gene assays, the cells were plated at 4,000 cells/well in 384-well plates with medium containing 1% fetal bovine serum and incubated overnight at 37° C. and 5% CO2. Following incubation, 20 μl of BrightGlo luminescence reagent (Promega) was added to each well of the 384-well assay plates. The plates were placed on an orbital shaker for 2 min and then luminescence was quantified using the Envision (Perkin Elmer) plate reader. Readings were normalized to DMSO only treated cells, and normalized activities were utilized for EC50 calculations using the dose-response log (inhibitor) vs. response -variable slope (four parameters) nonlinear regression feature available in GraphPad Prism 5.0 (or Dotmatics). For EC50 of >10 μM, the percent inhibition at 10 μM is provided.
For orientation: In a reporter assay the amount or activity of a reporter protein is the signal.

By EC50 is commonly meant the concentration giving half of the maximal effect. A lower EC50 goes with an effect from little substance. One may read the inhibition as the drop in the measured response relative to a control, in per cent. With `Fc1cccc(-c2ccnc3[nH]c(-c4n[nH]c5ccc(-c6cccnc6)nc45)cc23)c1` [Compound 4, 3-(4-(3-Fluorophenyl)-1H-pyrrolo[2,3-b]pyridin-2-yl)-5-(pyridin-3-yl)-1H-pyrazolo[4,3-b]pyridine], the EC50 was over 10 µM and the inhibition at 10 µM was determined as 47.3%.
Regarding `CC(C)(C)C(=O)Nc1cncc(-c2ccc3[nH]nc(-c4cc5c(-c6cccc(F)c6)ccnc5[nH]4)c3n2)c1` [Compound 8, N-(5-(3-(4-(3-Fluorophenyl)-1H-pyrrolo[2,3-b]pyridin-2-yl)-1H-pyrazolo [4,3-b]pyridin-5-yl)pyridin-3-yl)pivalamide], the EC50 was over 10 µM and the inhibition at 10 µM was 14.3%.
For the compound `Cc1ccncc1-c1ccc2[nH]nc(-c3cc4c(-c5ccc(F)cc5)ccnc4[nH]3)c2n1` [Compound 33, 3-(4-(4-Fluorophenyl)-1H-pyrrolo[2,3-b]pyridin-2-yl)-5-(4-methylpyridin-3-yl)-1H-pyrazolo[4,3-b]pyridine], the EC50 is over 10 µM and the inhibition at 10 µM is 16.2%.
In the case of `O=C(Nc1cncc(-c2ccc3[nH]nc(-c4cc5c(-c6ccc(F)cc6)ccnc5[nH]4)c3n2)c1)c1ccccc1` [Compound 39, N-(5-(3-(4-(4-Fluorophenyl)-1H-pyrrolo[2,3-b]pyridin-2-yl)-1H-pyrazolo [4,3-b]pyridin-5-yl)pyridin-3-yl)benzamide], the EC50 is over 10 µM and the inhibition at 10 µM is 0%.
As to `Fc1ccc(-c2ccnc3[nH]c(-c4n[nH]c5ccc(-c6cncc(CN7CCC(F)(F)C7)c6)nc45)cc23)cc1` [Compound 54, 5-(5-((3,3-Difluoropyrrolidin-1-yl)methyl)pyridin-3-yl)-3-(4-(4-fluorophenyl)-1H-pyrrolo[2,3-b]pyridin-2-yl)-1H-pyrazolo[4,3-b]pyridine], the EC50 was over 10 µM and the inhibition at 10 µM is 10.2%.
With `Fc1ccc(-c2ccnc3[nH]c(-c4n[nH]c5ccc(-c6cncnc6)nc45)cc23)cc1` [Compound 55, 3-(4-(4-Fluorophenyl)-1H-pyrrolo[2,3-b]pyridin-2-yl)-5-(pyrimidin-5-yl)-1H-pyrazolo[4,3-b]pyridine], the EC50 is over 10 µM and the inhibition at 10 µM is 32%.
`CC(C)CC(=O)Nc1cncc(-c2ccc3[nH]nc(-c4cc5c(-c6ccccc6F)ccnc5[nH]4)c3n2)c1` [Compound 58, N-(5-(3-(4-(2-Fluorophenyl)-1H-pyrrolo[2,3-b]pyridin-2-yl)-1H-pyrazolo [4,3-b]pyridin-5-yl)pyridin-3-yl)-3-methylbutanamide] came in with an EC50 of 0.517 µM.
In the case of `O=C(Nc1cncc(-c2ccc3[nH]nc(-c4cc5c(-c6ccccc6F)ccnc5[nH]4)c3n2)c1)C1CC1` [Compound 76, N-(5-(3-(4-(2-Fluorophenyl)-1H-pyrrolo[2,3-b]pyridin-2-yl)-1H-pyrazolo [4,3-b]pyridin-5-yl)pyridin-3-yl)cyclopropanecarboxamide], the EC50 was over 10 µM and the inhibition at 10 µM was determined as 37.3%.
As to `Fc1ccccc1-c1ccnc2[nH]c(-c3n[nH]c4ccc(-c5cncc(CNCc6ccccc6)c5)nc34)cc12` [Compound 80, N-Benzyl-1-(5-(3-(4-(2-fluorophenyl)-1H-pyrrolo[2,3-b]pyridin-2-yl)-1H-pyrazolo[4,3-b]pyridin-5-yl)pyridin-3-yl)methanamine], the EC50 was over 10 µM and the inhibition at 10 µM is 29%.
On to `Fc1ccccc1-c1ccnc2[nH]c(-c3n[nH]c4ccc(-c5ccccn5)nc34)cc12` [Compound 84, 3-(4-(2-Fluorophenyl)-1H-pyrrolo[2,3-b]pyridin-2-yl)-5-(pyridin-2-yl)-1H-pyrazolo[4,3-b]pyridine], for which the EC50 was over 10 µM and the inhibition at 10 µM came out at 3%.
The like results for `c1cncc(-c2ccnc3[nH]c(-c4n[nH]c5ccc(-c6ccncc6)nc45)cc23)c1` [Compound 102, 3-(4-(Pyridin-3-yl)-1H-pyrrolo[2,3-b]pyridin-2-yl)-5-(pyridin-4-yl)-1H-pyrazolo[4,3-b]pyridine] were, in that order, over 10 µM and 9.5%.
The like results for `c1cc(N2CCCCC2)c2cc(-c3n[nH]c4ccc(-c5cncc(CN6CCCCC6)c5)nc34)[nH]c2n1` [Compound 183, 3-(4-(Piperidin-1-yl)-1H-pyrrolo[2,3-b]pyridin-2-yl)-5-(5-(piperidin-1-ylmethyl)pyridin-3-yl)-1H-pyrazolo[4,3-b]pyridine] were, in that order, over 10 µM and 6.5%.
The like results for `c1ccc(-c2ccc3[nH]nc(-c4cc5c(N6CCCCC6)ccnc5[nH]4)c3n2)nc1` [Compound 196, 3-(4-(Piperidin-1-yl)-1H-pyrrolo[2,3-b]pyridin-2-yl)-5-(pyridin-2-yl)-1H-pyrazolo[4,3-b]pyridine] were, in that order, over 10 µM and 9.8%.
Take `O=C(Nc1cncc(-c2ccc3[nH]nc(-c4cc5cccnc5[nH]4)c3n2)c1)C1CCCCC1` [Compound 275, N-(5-(3-(1H-Pyrrolo[2,3-b]pyridin-2-yl)-1H-pyrazolo[4,3-b]pyridin-5-yl)pyridin-3-yl)cyclohexanecarboxamide]: the EC50 is over 10 µM and the inhibition at 10 µM was determined as 14.9%.
Take `CN(C)c1cncc(-c2ccc3[nH]nc(-c4cc5c(-c6ccoc6)ccnc5[nH]4)c3n2)c1` [Compound 315, 5-(3-(4-(Furan-3-yl)-1H-pyrrolo[2,3-b]pyridin-2-yl)-1H-pyrazolo[4,3-b]pyridin-5-yl)-N,N-dimethylpyridin-3-amine]: the EC50 was over 10 µM and the inhibition at 10 µM was 6.6%.
For the compound `O=C(Cc1ccccc1)Nc1cncc(-c2ccc3[nH]nc(-c4cc5c(-c6ccoc6)ccnc5[nH]4)c3n2)c1` [Compound 318, N-(5-(3-(4-(Furan-3-yl)-1H-pyrrolo[2,3-b]pyridin-2-yl)-1H-pyrazolo[4,3-b]pyridin-5-yl)pyridin-3-yl)-2-phenylacetamide], the EC50 was over 10 µM and the inhibition at 10 µM was found to be 3.4%.
Regarding `c1csc(-c2ccnc3[nH]c(-c4n[nH]c5ccc(-c6ccncc6)nc45)cc23)c1` [Compound 354, 5-(Pyridin-4-yl)-3-(4-(thiophen-2-yl)-1H-pyrrolo[2,3-b]pyridin-2-yl)-1H-pyrazolo[4,3-b]pyridine], the EC50 is over 10 µM and the inhibition at 10 µM is 14.6%.
Take `c1csc(-c2ccnc3[nH]c(-c4n[nH]c5ccc(-c6cncnc6)nc45)cc23)c1` [Compound 363, 5-(Pyrimidin-5-yl)-3-(4-(thiophen-2-yl)-1H-pyrrolo[2,3-b]pyridin-2-yl)-1H-pyrazolo[4,3-b]pyridine]: the EC50 is over 10 µM and the inhibition at 10 µM was found to be 29.8%.
As to `Fc1cccc(-c2ccnc3[nH]c(-c4n[nH]c5ccc(-c6cncc(OCc7ccccc7)c6)nc45)cc23)c1` [Compound 518, 5-(5-(Benzyloxy)pyridin-3-yl)-3-(4-(3-fluorophenyl)-1H-pyrrolo[2,3-b]pyridin-2-yl)-1H-pyrazolo[4,3-b]pyridine], the EC50 was over 10 µM and the inhibition at 10 µM stood at 16.7%.
Consider `Oc1cncc(-c2ccc3[nH]nc(-c4cc5c(-c6ccc(F)cc6)ccnc5[nH]4)c3n2)c1` [Compound 533, 5-(3-(4-(4-Fluorophenyl)-1H-pyrrolo[2,3-b]pyridin-2-yl)-1H-pyrazolo[4,3-b]pyridin-5-yl)pyridin-3-ol], for which the EC50 worked out at 0.31 µM. This lies in the sub-micromolar range.
In the case of `c1cc(N2CCCCC2)c2cc(-c3n[nH]c4ccc(C5CCNCC5)nc34)[nH]c2n1` [Compound 601, 3-(4-(Piperidin-1-yl)-1H-pyrrolo[2,3-b]pyridin-2-yl)-5-(piperidin-4-yl)-1H-pyrazolo[4,3-b]pyridine], the EC50 is over 10 µM and the inhibition at 10 µM was found to be 3.5%.
The compound `Cn1cc(-c2ccc3[nH]nc(-c4cc5cccnc5[nH]4)c3n2)cn1` [Compound 652, 5-(1-Methyl-1H-pyrazol-4-yl)-3-(1H-pyrrolo[2,3-b]pyridin-2-yl)-1H-pyrazolo[4,3-b]pyridine] registered an EC50 of 2.26 µM. In other words, the single-digit micromolar range.
On to `c1csc(-c2ccnc3[nH]c(-c4n[nH]c5ccc(-c6cncc(OC7CCCCC7)c6)nc45)cc23)c1` [Compound 703, 5-(5-(Cyclohexyloxy)pyridin-3-yl)-3-(4-(thiophen-2-yl)-1H-pyrrolo[2,3-b]pyridin-2-yl)-1H-pyrazolo[4,3-b]pyridine], for which the concentration for a half-maximal effect (EC50) was determined as 3.64 µM. Against the preceding compound, the EC50 is about 1.6-fold higher.
